# Where “and” joins values, the source holds several entries; their conditions need not be identical. Identical values can stand only once.
# Legend:
# hLPCAT2 [1] = biological target: T1, hLPCAT2 (Homo sapiens, UniProt Q7L5N7); test: lyso-PAFAT (acetyltransferase) activity assay, PAF product by LC-MS/MS; assay type: biochemical; details: for IC50: 0, 0.2, 0.6, 2, 6 and 20 μM of each compound in triplicate, LC-MS/MS, read-out: IC50, product PAF, enzyme hLPCAT2; for percentage inhibition, product PAF, hLPCAT2: 20 μM compound, microsomal fractions of nonstimulated CHO-S-PAFR cells, n = 3, mean ± SEM; for selectivity for hLPCAT2 over hLPCAT1: from IC50 values of Table 1
# T1 construct: expressed in transfected cells; host or cells: CHO-S-PAFR cells (microsomal fraction), with or without mcPAF stimulation
# T1 sequence (Q7L5N7 1-544): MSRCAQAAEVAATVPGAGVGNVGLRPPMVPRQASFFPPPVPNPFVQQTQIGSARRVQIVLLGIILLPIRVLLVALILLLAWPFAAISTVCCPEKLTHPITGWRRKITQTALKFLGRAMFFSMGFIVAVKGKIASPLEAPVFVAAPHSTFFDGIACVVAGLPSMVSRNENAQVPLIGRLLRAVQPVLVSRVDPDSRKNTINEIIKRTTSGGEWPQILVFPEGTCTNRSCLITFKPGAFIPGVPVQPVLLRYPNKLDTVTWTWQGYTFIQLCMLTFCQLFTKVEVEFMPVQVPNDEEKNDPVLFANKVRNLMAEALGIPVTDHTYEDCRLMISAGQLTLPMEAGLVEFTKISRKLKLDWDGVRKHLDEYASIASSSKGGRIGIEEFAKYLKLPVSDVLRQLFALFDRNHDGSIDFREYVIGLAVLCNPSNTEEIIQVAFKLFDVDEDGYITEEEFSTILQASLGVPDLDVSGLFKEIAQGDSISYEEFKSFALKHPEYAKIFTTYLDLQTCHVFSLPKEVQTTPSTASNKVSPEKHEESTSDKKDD
# Description: (§1) Microsomal protein fractions (0.5 μg) supplemented with the indicated compound concentrations were added to the reaction mixture containing 100 mM Tris-HCl (pH 7.4), 1 μM CaCl2, 0.015% Tween-20, and two substrates. For acetyltransferase activity, the substrates were 1 mM acetyl-CoA and 5 μM d4-lyso-PAF; for the acyltransferase activity of LPCAT1 or LPCAT2, the substrates were, respectively, palmitoyl-CoA and d31-16:0 LPC or arachidonoyl-CoA and d4-lyso-PAF (all 5 μM). Each lysophospholipid contained fatty acid at the sn-1 position. After incubation at 37°C for 5 min, the reactions were stopped by adding 300 μl methanol containing 17:0 LPC or 14:0/14:0 PC as an internal standard. Deuterium-labeled products were analyzed by LC-MS/MS (Waters, Milford, MA and Thermo Scientific, Waltham, MA). […]
# (§2) Steps 2 to 5 screening: 96-well plate assay
# (§3) Acetyltransferase and acyltransferase assays were developed in 96-well plates. The microsomal hLPCAT2, obtained from mcPAF-stimulated CHO-S-PAFR cells was used in steps 1, 2, and 5. The microsomal hLPCAT1 obtained from unstimulated CHO-S cells was used in steps 3 to 5. Each well of the 96-well plates contained 30 µl of 15 µg/ml protein, 600 nl of 2 mM compound, 30 µl buffer C, and two substrates (Fig. 1B and C).
# (§4) Substrate concentrations were as follows: acetyl-CoA, 250 or 1000 µM acetyl-CoA; […]
# (§5) arachidonoyl-CoA, 5 µM; palmitoyl-CoA, 5 µM; d4-lyso-PAF, 5 µM; and d31-LPC, 5 µM.
# For step 5, compound concentrations were 0, 0.167, 0.67, 2, 6.7, and 20 µM. The deuterium-labeled products were measured by LC-MS/MS. Percentage inhibition (steps 2 to 4) or IC50 (step 5) was used as the hit criterion.
# Step 6 screening: BSA assay
# The acetyltransferase assay was performed with 20 µM of each compound and microsomal hLPCAT2 from step 1. The assay mixture contained 0.4% BSA and two substrates for lyso-PAFAT activity: 1 mM acetyl-CoA and 5 µM d4-lyso-PAF. Percentage inhibition values were determined.
# (§6) Step 7 screening: species-specific differences
# (§7) To evaluate the effects on the activity of mouse or human LPCAT1 and LPCAT2, each microsomal fraction was obtained using CHO-S-PAFR cells with or without mcPAF (200 nM) stimulation for 5 min. Acetyltransferase and acyltransferase assays were performed with 20 µM of each compound. Percentage inhibition was calculated in each
# hLPCAT2 [2] = biological target: T1, hLPCAT2; test: acyltransferase activity assay, 16:0/20:4 alkyl-PC product by LC-MS/MS; assay type: biochemical; details: for IC50: 0, 0.2, 0.6, 2, 6 and 20 μM of each compound in triplicate, LC-MS/MS, read-out: IC50, product Alkyl-PC (16:0/20:4 alkyl-PC), enzyme hLPCAT2; for percentage inhibition, product 16:0/20:4 Alkyl-PC, hLPCAT2: 20 μM compound, microsomal fractions of nonstimulated CHO-S-PAFR cells, n = 3, mean ± SEM
# Description: as §1, §2, §3, §4, §5
# For step 5, compound concentrations were 0, 0.167, 0.67, 2, 6.7, and 20 µM. The deuterium-labeled products were measured by LC-MS/MS. Percentage inhibition (steps 2 to 4) or IC50 (step 5) was used as the hit criterion. […]
# as §6, §7
IC50 (hLPCAT2 [1]),"percentage inhibition, product PAF, hLPCAT2 (hLPCAT2 [1])",selectivity for hLPCAT2 over hLPCAT1 (hLPCAT2 [1]),IC50 (hLPCAT2 [2]),"percentage inhibition, product 16:0/20:4 Alkyl-PC, hLPCAT2 (hLPCAT2 [2])",Structure (SMILES)
2170 nM,–,–,1160 nM,–,"O=C1C(Cl)=C(N2CCOCC2)C(=O)N1c1ccc(Oc2ccccc2)cc1 [TSI-02, 3-chloro-4-morpholin-4-yl-1-(4-phenoxyphenyl)pyrrole-2,5-dione]"
5500 nM,90.8 ± 3.0 percentage,approximately 10 fold,13300 nM,83.1 ± 4.3 percentage,CC(C)OC(=O)c1ccc(N2C(=O)C(Cl)=C(Nc3ccccc3O)C2=O)cc1 [TSI-07]
~100 nM and 130 nM,99.5 ± 0.2 percentage,approximately 10 fold,300 nM,85.4 ± 3.0 percentage,CCCOC(=O)c1ccc(N2C(=O)C(Cl)=C(Cl)C2=O)cc1 [TSI-10]
~100 nM and 140 nM,99.4 ± 0.2 percentage,approximately 10 fold,330 nM,80.4 ± 2.7 percentage,"CCCCOC(=O)c1ccc(N2C(=O)C(Cl)=C(Cl)C2=O)cc1 [TSI-11, butyl 4-(3,4-dichloro-2,5-dioxopyrrol-1-yl)benzoate]"

Structure (SMILES),IC50 (hLPCAT2 [1]),"percentage inhibition, product PAF, hLPCAT2 (hLPCAT2 [1])",selectivity for hLPCAT2 over hLPCAT1 (hLPCAT2 [1]),IC50 (hLPCAT2 [2]),"percentage inhibition, product 16:0/20:4 Alkyl-PC, hLPCAT2 (hLPCAT2 [2])"
"CC(C)OC(=O)c1ccc(N2C(=O)C(Cl)=C(Cl)C2=O)cc1 [TSI-01, propan-2-yl 4-(3,4-dichloro-2,5-dioxopyrrol-1-yl)benzoate]",470 nM,99.8 ± 0.1 percentage,approximately 10 fold,1270 nM,95.2 ± 1.3 percentage
